Test results published in article PMC10377753, “Pharmacokinetic and pharmacodynamic properties of polymyxin B in Escherichia coli and Klebsiella pneumoniae murine infection models” (Journal of Antimicrobial Chemotherapy, 2023).
Counter-ions that a name gives are not always drawn. Bridge positions count the residues as written; N and C are the ends. Square brackets hold non-standard residues; d marks the D form. Peptide text beside a SMILES is read from it. * marks the point of attachment. X1 = CC[C@H](C)CCCCC(=O)*; Dab = NCC[C@H](N)C(=O)O

Test system: E. coli isolates
Assay: Dose-response study, thigh infection model, summary over E. coli isolates
Format: in vivo, Escherichia coli
Procedure: Experiments were carried out in the Erasmus Laboratory Animal Science Centre in Rotterdam, The Netherlands in accordance with the EU Animal Directive 2010/63/EU 2010 directive[14] (licence number AVD101002016702) as described before,[15] with approval of the institutional Animal Welfare Body. Outbred female CD-1 mice obtained from Charles River Germany, weighing 20–25 g, 7–8 weeks old, were used in the experiments. The mice were housed under standard conditions with drink and feed supplied ad libitum.
Mice were rendered neutropenic by intraperitoneal injection of cyclophosphamide of 150 and 100 mg/kg, 4 days and 1 day before infection, respectively. On the day of infection, an overnight culture of the bacteria was diluted in fresh CAMHB and incubated at 37°C for 1 or 2 h depending on the growth rate of the strain. After incubation the inoculum was diluted in CAMHB or saline for the thigh and lung infection model, respectively, in order to obtain approximately 5.0 × 10^7 cfu/mL. Mice were then infected intramuscularly in each thigh (thigh infection model) or intranasally under isoflurane anaesthesia (lung infection model), with 0.05 mL of inoculum containing approximately 2.5 × 10^6 bacteria. Analgesia was given in the form of buprenorphine directly after infection, every 12 h.
For dose–response studies, a 6 hourly dosing regimen of 1–32 mg/kg was studied in the thigh infection model. Mice were infected with E. coli […], 15, 51 or 71 or K. pneumoniae ATCC 43816, 17, 58 or 74.
Animals were humanely euthanized 24 h (t = 24 h) after the first dose, unless the welfare of the animals necessitated earlier termination, following animal welfare regulations. Excised thighs were transferred to a pre-cooled 14 mL polypropylene tube containing 2 mL of PBS and were homogenized using a T25 ULTRA-TURRAX (IKA-Werke GmbH & Co, Staufen, Germany). A 10-fold dilution series was prepared and 3 × 10 μL was plated per dilution. The following day, colonies were counted and the number of cfu per thigh was calculated.
The drug effect was determined by the difference between the log10 cfu values at t = 0 h (mean value of two mice) and t = 24 h (value of individual mice) expressed as Δlog10 cfu. The fAUC/MIC, fCmax/MIC and %fT>MIC were determined based on the simulated time–concentration profiles over 24 h as derived in MicLab 2.71 (MEDIMATICS, Maastricht, The Netherlands) using 200 points per dosing interval.
A sigmoid maximum effect (Emax) model was fitted to the PK/PD index versus Δlog10 cfu data by non-linear regression, and static or a 1 log or 2 log kill effect were determined using GraphPad Prism 8.0 (GraphPad, Inc., San Diego, CA, USA). A two-tailed unpaired t-test was performed in GraphPad Prism 8.0 to determine if there was a significant difference in the fAUC/MIC targets correlating with a static or a 1 log or 2 log decline, between E. coli and K. pneumoniae isolates.

[1] = two E. coli isolates in which 1 log kill was found

SMILES: CC[C@H](C)CCCCC(=O)N[C@@H](CCN)C(=O)N[C@H](C(=O)N[C@@H](CCN)C(=O)N[C@H]1CCNC(=O)[C@H]([C@@H](C)O)NC(=O)[C@H](CCN)NC(=O)[C@H](CCN)NC(=O)[C@H](CC(C)C)NC(=O)[C@@H](Cc2ccccc2)NC(=O)[C@H](CCN)NC1=O)[C@@H](C)O [polymyxin B, Polymyxin B sulphate salt] (X1-[Dab]T[Dab][Dab][Dab][dF]L[Dab][Dab]T; lactam 4-C)
- Isolates in which 1 log kill was found (E. coli isolates, mouse thigh infection): 2/4
- Target value of fAUC/MIC, static effect, average (average of four E. coli isolates, mouse thigh infection, q6h): 64.3
- Target value of fAUC/MIC, static effect, median (median of four E. coli isolates, mouse thigh infection, q6h): 63.5
- Target value of fAUC/MIC, static effect, range (range over four E. coli isolates, mouse thigh infection, q6h): 27.5–102.6
- fAUC/MIC for 1 log kill, median [1]: 50.6
- fAUC/MIC for 1 log kill, range [1]: 46.8–54.5
